Test results published in patent publication US10723699B2 (Hyundai Pharm Co., Ltd., priority 2015, dated 2020).

Columns and labels:
CYP2D6 = molecular target: T1, CYP2D6 (Homo sapiens, UniProt P10635); test: CYP inhibition assay (Invitrogen P2862 kit); format: in vitro ADME; conditions: 10 µM
T1 construct: purchased Invitrogen P2862
Excerpt: (§1) CYP enzymes play a major role in the metabolism of drugs. Depending on the inhibition activity of the CYP enzymes, the dose of the drugs and toxicity due to the co-administration of other drugs can be predicted. Therefore, we have measured the inhibitory activity for CYP3A4, CYP2C9, CYP1A2, CYP2D6 and CYP2C19 enzymes present in the body using the compounds of the present invention. Invitrogen P2862 kit was used for CYP2D6 inhibition assay, and BD GENTEST (459100, 459300, 459400, 459500) kits were used for CYP1A2, CYP2C9, CYP2C19 and CYP3A4 inhibition assay. In case of Invitrogen kit, the test materials were diluted in distilled water into 2.5× of the final test concentration.
P450 BACULOSOMES® reagent and regeneration device (100×) provided by the Invitrogen kit were diluted in the Vivid® reaction buffer (2×) into the appropriate concentration for the type of CYP450. After mixing 80 μl of the 2.5× test material and 100 μl of the mixture of the diluted P450 BACULOSOMES® reagent in U-bottom 96-well plate, the resulting mixture was pre-incubated for 20 minutes. Vivid® CYP450 substrate and NADP+ (100×) were diluted in the Vivid® CYP450 reaction buffer (2×) into the appropriate concentration for the types of CYP450 and the substrates. After completion of the pre-incubation, 20/l of the substrate-NADP (nicotinamide adenine dinucleotide phosphate) mixture was added, and then incubated for 1 hour. After completion of the reaction, the reactants were transferred to the white plates, and fluorescence values were measured using a micro-plate reader (Excitation and absorption wavelengths of CYP2D6 were 400 nm and 502 nm, respectively).
(§2) The measured values were converted into the inhibition percent of the test materials as compared to the value of the untreated control, and the results were summarized in Table 5.

NCI-H716 cells = test: Promotion of glucagon-like peptide-1 (GLP-1) secretion (ELISA); format: cell-based, human; conditions: 1, 10, 30 μM
Method: To evaluate an effect of the cyclohexene derivative according to the present invention on promotion of glucagon-like peptide-1 (GLP-1) secretion, experiments were carried out, as follows.
NCI-H716 cells that were human enterocytes were plated on 12 wells at 1×10^6 cells per well. After 48 hours, the cells were starved in serum-free media for 2 hours, and treated with a varying concentration of siptagliptin that was a dipeptidyl peptidase-IV (DPP-IV) inhibitor, and the compounds of Comparative Example 1 (1, 10, 30 μM), Comparative Example 5 (10 μM), Example 48 (1, 10, 30 μM), and Example 291 (1, 10, 30 μM). After an hour, supernatants are recovered to determine an amount of the secreted GLP-1 peptide. The GLP-1 measurement was performed using an enzyme-linked immunosorbant assay (ELISA; Millipore, EGLP-35K), and the amount of the secreted GLP-1 peptide was indicated by the unit “pM”.

[1] = molecular target: T2, G protein-coupled receptor 119 (GPR-119) (Mesocricetus auratus, UniProt A0A1U8CD06); test: cAMP activity in HIT-T15 cells (cAMP dynamic kit, FRET); format: cell-based, hamster; conditions: 1 hour at 37° C., six concentrations 0.0032 to 10 μM, read-out: EC50
T2 construct: hamster-derived β-cells containing G protein-coupled receptor 119 (GPR-119), HIT-T15 cells; host or cells: HIT-T15 (hamster pancreatic β-cells)
T2 sequence (A0A1U8CD06 1-334): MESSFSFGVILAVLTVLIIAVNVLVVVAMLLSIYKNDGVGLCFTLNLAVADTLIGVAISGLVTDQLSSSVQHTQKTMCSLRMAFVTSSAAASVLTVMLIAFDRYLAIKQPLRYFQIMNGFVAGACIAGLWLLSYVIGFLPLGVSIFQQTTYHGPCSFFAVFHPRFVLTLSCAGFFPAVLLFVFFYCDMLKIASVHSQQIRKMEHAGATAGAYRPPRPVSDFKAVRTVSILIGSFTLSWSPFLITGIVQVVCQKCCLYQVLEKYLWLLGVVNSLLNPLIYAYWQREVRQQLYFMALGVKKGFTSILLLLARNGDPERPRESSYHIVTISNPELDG
Summary of the method: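 Hamster HIT-T15 cells (60,000/well) were treated next day with compound at six concentrations, 0.0032–10 μM, for 1 h at 37° C. Cells were then lysed and cAMP measured by competitive HTRF immunoassay (D2-cAMP, cryptate anti-cAMP). Activity was derived as the change in FRET signal relative to DMSO.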

CYP3A4 = molecular target: T3, CYP3A4 (Homo sapiens, UniProt P08684); test: CYP inhibition assay (BD GENTEST kit); format: in vitro ADME; conditions: 10 μM
T3 construct: purchased BD GENTEST 459500
Excerpt: as §1
(§3) In case of BD GENTEST kit, the test materials were diluted in acetonitrile into 50× of the final test concentration. NADPH-cofactor mixture containing cofactor, G6PDH and control protein was prepared in distilled water as per manufacturer's instruction. 4 μl of 50× test materials and 96 μl of NADPH-cofactor mixture were mixed in U-bottom 96-well plate, and the resulting mixture were pre-incubated at 37° C. for 10 minutes. Predetermined concentrations of enzyme/substrate mixture were prepared in distilled water using buffer (0.5M potassium phosphate, pH 7.4) and each of CYP450 enzyme/substrate mixture provided in the kit for the types of CYP450. To the pre-incubated plate, 100 μl of enzyme/substrate mixture was added, and then incubated at 37° C. for 15 minutes (CYP1A2), 30 minutes (CYP3A4 and CYP2C19) or 1.5 hours (CYP2C9). After completion of the reaction, the reactants were transferred to the white plates, and fluorescent values were measured using a micro-plate reader (Excitation and absorption wavelengths of CYP1A2 and CYP2C19 were 410 nm and 460 nm, respectively; and excitation and absorption wavelengths of CYP2C9 and CYP3A4 were 409 nm and 530 nm, respectively).
as §2

CYP2C9 = molecular target: T4, CYP2C9 (Homo sapiens, UniProt P11712); test: CYP inhibition assay (BD GENTEST kit); format: in vitro ADME; conditions: 10 μM
T4 construct: purchased BD GENTEST 459300
Excerpt: as §1, §3, §2

CYP2C19 = molecular target: T5, CYP2C19 (Homo sapiens, UniProt P33261); test: CYP inhibition assay (BD GENTEST kit); format: in vitro ADME; conditions: 10 μM
T5 construct: purchased BD GENTEST 459400
Excerpt: as §1, §3, §2

T5 sequence (P33261 whole entry): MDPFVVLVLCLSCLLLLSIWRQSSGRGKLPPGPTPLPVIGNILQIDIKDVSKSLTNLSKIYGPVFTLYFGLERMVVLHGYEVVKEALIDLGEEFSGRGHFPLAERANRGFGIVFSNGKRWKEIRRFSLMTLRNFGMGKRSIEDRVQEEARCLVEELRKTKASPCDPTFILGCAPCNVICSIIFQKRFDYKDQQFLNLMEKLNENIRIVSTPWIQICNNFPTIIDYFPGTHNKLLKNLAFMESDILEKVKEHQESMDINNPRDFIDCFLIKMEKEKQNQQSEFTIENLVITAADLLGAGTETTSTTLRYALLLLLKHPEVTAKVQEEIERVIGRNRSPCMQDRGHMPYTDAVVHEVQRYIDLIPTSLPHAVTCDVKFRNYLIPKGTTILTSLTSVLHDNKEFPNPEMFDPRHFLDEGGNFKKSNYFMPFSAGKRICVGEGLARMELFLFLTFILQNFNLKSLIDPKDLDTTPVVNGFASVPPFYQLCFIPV
T4 sequence (P11712 whole entry): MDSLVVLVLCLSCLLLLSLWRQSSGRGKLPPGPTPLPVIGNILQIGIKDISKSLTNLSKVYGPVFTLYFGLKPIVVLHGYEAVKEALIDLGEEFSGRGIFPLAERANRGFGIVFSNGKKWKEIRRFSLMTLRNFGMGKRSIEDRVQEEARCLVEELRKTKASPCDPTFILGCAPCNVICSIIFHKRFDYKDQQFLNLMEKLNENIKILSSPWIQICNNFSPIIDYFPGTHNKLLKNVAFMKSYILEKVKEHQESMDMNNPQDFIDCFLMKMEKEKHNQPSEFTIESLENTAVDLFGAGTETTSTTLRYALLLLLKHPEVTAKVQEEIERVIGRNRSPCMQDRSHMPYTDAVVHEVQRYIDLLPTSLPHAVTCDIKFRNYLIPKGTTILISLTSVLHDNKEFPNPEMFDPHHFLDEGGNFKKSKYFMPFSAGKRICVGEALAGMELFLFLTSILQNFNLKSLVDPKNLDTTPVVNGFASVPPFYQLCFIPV
T1 sequence (P10635 whole entry): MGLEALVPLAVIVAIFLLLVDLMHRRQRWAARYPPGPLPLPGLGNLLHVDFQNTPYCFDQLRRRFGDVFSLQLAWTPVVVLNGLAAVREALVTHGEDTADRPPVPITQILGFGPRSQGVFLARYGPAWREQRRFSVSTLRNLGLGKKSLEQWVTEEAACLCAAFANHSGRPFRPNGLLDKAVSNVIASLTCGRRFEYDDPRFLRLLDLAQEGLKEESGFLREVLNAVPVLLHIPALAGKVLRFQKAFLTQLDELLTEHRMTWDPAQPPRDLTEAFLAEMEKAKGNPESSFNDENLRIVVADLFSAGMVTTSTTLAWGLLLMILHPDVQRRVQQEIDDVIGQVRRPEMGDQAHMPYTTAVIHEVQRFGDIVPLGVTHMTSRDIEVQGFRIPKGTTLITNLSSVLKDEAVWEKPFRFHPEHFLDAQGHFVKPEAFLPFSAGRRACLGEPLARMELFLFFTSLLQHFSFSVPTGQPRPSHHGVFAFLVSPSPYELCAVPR
T3 sequence (P08684 whole entry): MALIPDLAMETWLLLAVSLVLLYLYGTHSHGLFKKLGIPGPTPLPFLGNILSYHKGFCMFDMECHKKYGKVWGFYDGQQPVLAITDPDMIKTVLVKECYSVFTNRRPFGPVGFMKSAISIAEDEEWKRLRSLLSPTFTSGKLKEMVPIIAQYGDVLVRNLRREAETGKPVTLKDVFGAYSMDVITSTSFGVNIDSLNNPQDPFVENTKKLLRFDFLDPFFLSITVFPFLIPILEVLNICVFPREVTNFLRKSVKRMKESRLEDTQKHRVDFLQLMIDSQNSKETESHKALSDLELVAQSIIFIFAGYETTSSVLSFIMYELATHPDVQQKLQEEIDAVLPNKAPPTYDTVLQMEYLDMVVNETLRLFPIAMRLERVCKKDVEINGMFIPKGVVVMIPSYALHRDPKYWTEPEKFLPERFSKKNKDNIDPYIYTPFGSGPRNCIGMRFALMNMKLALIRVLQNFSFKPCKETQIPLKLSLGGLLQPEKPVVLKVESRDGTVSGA

CCc1cnc(N2CCC(COc3ccc(C4=CCC(C(=O)N5CCC[C@@H]5CO)CC4)cc3)CC2)nc1 (single isomer, unassigned; (-)) [Example 291]
CYP inhibition (% at 10 μM) 2D6 (CYP2D6): 2.49% | GLP-1 secretion relative to the untreated group (NCI-H716 cells): approximately 1.8 times | EC50 [1]: 32 nM | CYP inhibition (% at 10 μM) 3A4 (CYP3A4): 36.36% | CYP inhibition (% at 10 μM) 2C9 (CYP2C9): 47.32% | CYP inhibition (% at 10 μM) 2C19 (CYP2C19): 54.06%
